Assay results: patent US11926640B2, “Prodrugs of glutamine analogs” (THE JOHNS HOPKINS UNIVERSITY, priority 2015, dated 2024)
“Also recorded” adds a separate entry of the source. Counter-ions that a name gives are not always drawn. Each block holds one compound with its values, some of them ahead of it.

Columns and labels:
[1] = in vitro metabolic stability in mouse plasma; settings: for PLASMA STABILITY Mouse: prodrug remaining within the 60 min incubation time; for stability in mouse plasma (in words): 30 min and 60 min
[2] = in vitro metabolic stability in human plasma; settings: for PLASMA STABILITY Human: prodrug remaining within the 60 min incubation time; for stability in human plasma (in words): 30 min and 60 min
[3] = in vitro metabolic stability in monkey plasma; settings: for PLASMA STABILITY Monkey: prodrug remaining within the 60 min incubation time; for stability in monkey plasma (in words): 30 min and 60 min
[4] = chemical stability (cyclization to diazo-imine, acidic pH); format: physicochemical
Excerpt: Chemistry. Scheme 9 outlines the synthesis and characterization of the ester based prodrugs 20 and 3 of DON and their subsequent cyclization to novel diazo-imines 9a-b. The pyroglutamate esters 6a-b (D'Andrea, et al., 2008) were FMOC-protected to afford compounds 18 and 1. Formation of the diazoketones 19 and 2 was accomplished using TMS diazomethane in good yield. Rapid deprotection with piperidine afforded the ester based prodrugs 20 and 3. Unexpectedly […] cyclization was observed even under mild conditions (e.g. stirring in chloroform at room temperature) affording the novel diazo-imines 9a and 9b. It is believed that this is the first example of this functional group being described in the chemical literature.

[5] = 5-day i.v. toxicity comparison of DON and 38 in pigs; format: in vivo; settings: at equivalent PBMC exposures
[6] = in vitro liver microsomal stability, pig; settings: pig microsomes
[7] = in vitro liver microsomal stability, human; settings: human microsomes
[8] = in vitro metabolic stability in pig plasma; settings: 30 min and 60 min
[9] = in vitro metabolic stability in dog plasma; format: in vitro ADME; settings: 30 min and 60 min
Experimental: Percentage remaining was calculated in the following manner.

[10] = DON release in mouse plasma after oral administration of prodrugs; format: in vivo; settings: mice, p.o., 30 minutes and 5 hours after dosing, compared to DON
Experimental: Procedure for Pharmacokinetic analysis for DON release from its prodrugs: DON is extracted from samples (50 μL) with 250 μL methanol containing Glutamate-d5 (10 μM ISTD) by vortexing in low retention tubes. Samples are centrifuged at 16,000×g for 5 minutes to precipitate proteins. Supernatants (200 μL) are moved to new tube and dried at 45° C. under vacuum (approximately 1 hour). To each tube, 50 μL of 0.2 M sodium bicarbonate buffer (pH 9.0) and 100 μL dabsyl chloride stock is added. After vortexing, samples are incubated at 60° C. for 15 minutes to derivatize.

[11] = plasma and CSF pharmacokinetics of DON in swine after i.v. infusion; format: in vivo, Göttingen×Yucutan miniature swine; settings: 60 min post-administration
Experimental: Compound: Compound 47 was dissolved in a sterile saline containing 5% ethanol and 5% Tween 80 on the date of administration.
Swine: Swine studies were conducted under a protocol approved by the Johns Hopkins Animal Care and Use Committee. Adult, female Göttingen×Yucutan miniature swine (Massachusetts General Hospital, MA) were housed in Johns Hopkins University facilities accredited by the Association for Assessment and Accreditation of Laboratory Animal Care International in compliance with the Animal Welfare Act, Animal Welfare Regulations, and the Public Health Service Policy on the Humane Care and Use of Laboratory Animals. Animals were maintained on a 14-h light and 10-h dark schedule, provided ad libitum water and a commercial miniswine diet (Teklad, Madison, WI) with environmental enrichment (fruit/vegetables) twice daily.

MC38 colon cancer = assay: MC38 tumor model; format: in vivo, mice; settings: single agent

Structure (SMILES): CC(C)OC(=O)[C@@H]1CCC(C=[N+]=[N-])=N1 (stereo in doubt) [Compound 9b, Isopropyl 5-(diazomethyl)-3,4-dihydro-2H-pyrrole-2-carboxylate]
chemical stability (in words) [4]: chemically stable even at acidic pH

Structure (SMILES): CC(C)OC(=O)[C@H](CCC(=O)C=[N+]=[N-])NC(=O)[C@@H](N)Cc1c[nH]c2ccccc12 (stereo in doubt) [Compound 38, Isopropyl 2-(2-amino-3-(1H-indol-3-yl)propanamido)-6-diazo-5-oxohexanoate]
DON delivered to GI tissues (in words) [5]: less DON to GI tissues
liver microsomal stability (in words) [6]: moderate-high stability
liver microsomal stability (in words) [7]: moderate-high stability
PLASMA STABILITY Mouse [1]: 0%
PLASMA STABILITY Human [2]: 30%
PLASMA STABILITY Monkey [3]: 10%

Structure (SMILES): CC(C)OC(=O)C(N)CCC(=O)C=[N+]=[N-] (centres unmarked) [Compound 3, Isopropyl 2-amino-6-diazo-5-oxohexanoate]
chemical stability (in words) [4]: chemical instability; also recorded: unstable

Structure (SMILES): CC(C)OC(=O)[C@H](CCC(=O)C=[N+]=[N-])NP(=O)(Oc1ccccc1)Oc1ccccc1 [Compound 4, Isopropyl 6-diazo-2-((diphenoxyphosphoryl)amino)-5-oxohexanoate]
stability in pig plasma (in words) [8]: stable
stability in mouse plasma (in words) [1]: unstable
stability in human plasma (in words) [2]: stable
stability in monkey plasma (in words) [3]: stable

Structure (SMILES): CC(C)OC(=O)C(CCC(=O)C=[N+]=[N-])NP(=O)(NC(CCC(=O)C=[N+]=[N-])C(=O)OC(C)C)Oc1ccccc1 (centres unmarked) [Compound 7, 1-methylethyl 2,6-bis[4-(1λ^5-diazynylidene)-3-oxobutyl]-9-methyl-7-oxo-4-phenoxy-8-oxa-3,5-diaza-4-phosphadecan-1-oate 4-oxide]
stability in pig plasma (in words) [8]: stable
stability in mouse plasma (in words) [1]: unstable
stability in human plasma (in words) [2]: stable
stability in monkey plasma (in words) [3]: stable

Structure (SMILES): CC(C)C[C@H](N)C(=O)N[C@@H](CCC(=O)C=[N+]=[N-])C(=O)OC(C)C [Compound 9, Isopropyl 2-(2-amino-4-methylpentanamido)-6-diazo-5-oxohexanoate]
stability in dog plasma (in words) [9]: unstable
liver microsomal stability (in words) [6]: moderate-high stability
stability in pig plasma (in words) [8]: unstable
liver microsomal stability (in words) [7]: moderate-high stability
stability in mouse plasma (in words) [1]: unstable
PLASMA STABILITY Mouse [1]: 0%
stability in human plasma (in words) [2]: unstable
PLASMA STABILITY Human [2]: 1%
stability in monkey plasma (in words) [3]: unstable
PLASMA STABILITY Monkey [3]: 1%

Structure (SMILES): CCOC(=O)[C@@H]1CCC(C=[N+]=[N-])=N1 [Compound 9a, Ethyl 5-(diazomethyl)-3,4-dihydro-2H-pyrrole-2-carboxylate]
chemical stability (in words) [4]: chemically stable even at acidic pH

Structure (SMILES): Cc1oc(=O)oc1COC(=O)N[C@@H](CCC(=O)C=[N+]=[N-])C(=O)OC(C)C [Compound 13, 1-Methylethyl 6-(1λ^5-diazynylidene)-N-{[(5-methyl-2-oxo-1,3-dioxol-4-yl)methoxy]carbonyl}-5-oxo-L-norleucinate]
PLASMA STABILITY Mouse [1]: 0%
PLASMA STABILITY Human [2]: 0%
PLASMA STABILITY Monkey [3]: 0%

Structure (SMILES): CCOC(=O)[C@@H](N)CCC(=O)C=[N+]=[N-] [Compound 20, Ethyl 2-amino-6-diazo-5-oxohexanoate]
chemical stability (in words) [4]: chemical instability; also recorded: unstable

Structure (SMILES): CCOC(=O)[C@H](CCC(=O)C=[N+]=[N-])NC(=O)[C@@H](N)Cc1c[nH]c2ccccc12 [Compound 34, Ethyl 2-(2-amino-3-(1H-indol-3-yl)propanamido)-6-diazo-5-oxohexanoate]
PLASMA STABILITY Mouse [1]: 0%
PLASMA STABILITY Human [2]: 12%
PLASMA STABILITY Monkey [3]: 4%

Structure (SMILES): CCOC(=O)[C@H](CCC(=O)C=[N+]=[N-])NC(=O)OCc1oc(=O)oc1C [Compound 36, Ethyl 6-diazo-2-((((5-methyl-2-oxo-1,3-dioxol-4-yl)methoxy)carbonyl)amino)-5-oxohexanoate]
PLASMA STABILITY Mouse [1]: 0%
PLASMA STABILITY Human [2]: 0%
PLASMA STABILITY Monkey [3]: 0%

Structure (SMILES): CC(C)OC(=O)[C@H](CCC(=O)C=[N+]=[N-])NC(=O)OCOC(=O)C(C)(C)C [Compound 42, Isopropyl 6-diazo-5-oxo-2-((((pivaloyloxy)methoxy)carbonyl)amino) hexanoate]
PLASMA STABILITY Mouse [1]: 0%
PLASMA STABILITY Human [2]: 9%
PLASMA STABILITY Monkey [3]: 0%

Structure (SMILES): CC(C)OC(=O)[C@H](CCC(=O)C=[N+]=[N-])NC(=O)OC(OC(=O)C(C)(C)C)c1ccccc1 (some centres unmarked) [Compound 47, Isopropyl 6-diazo-5-oxo-2-(((phenyl(pivaloyloxy)methoxy)carbonyl)amino) hexanoate]
CSF delivery of DON (in words) [11]: substantially higher amounts of DON to the CSF; also recorded: enhanced CSF delivery of DON
CSF:plasma ratio of DON (in words) [11]: increased CSF-to-plasma ratios; also recorded: enhanced CSF:plasma ratio

Structure (SMILES): CC(=O)N[C@@H](Cc1c[nH]c2ccccc12)C(=O)N[C@@H](CCC(=O)C=[N+]=[N-])C(=O)OC(C)C [Compound 60, Isopropyl 2-(2-acetamido-3-(1H-indol-3-yl)propanamido)-6-diazo-5-oxohexanoate]
antitumor efficacy in MC38 tumor model (in words) (MC38 colon cancer): promoted tumor regression
liver microsomal stability (in words) [6]: moderate-high stability
liver microsomal stability (in words) [7]: moderate-high stability

Second part, the compound after the results:

PLASMA STABILITY Mouse [1]: 0%
PLASMA STABILITY Human [2]: 88%
PLASMA STABILITY Monkey [3]: 75%
Structure (SMILES): CCOC(=O)[C@H](CCC(=O)C=[N+]=[N-])NC(=O)OC(C)OC(=O)C(C)(C)C (mixture of isomers) [Compound 32, Ethyl 6-diazo-2-(((1-(pivaloyloxy)ethoxy)carbonyl)amino)-5-oxohexanoate]

DON release / exposure in mouse plasma upon oral administration (in words) [10]: little DON release
Structure (SMILES): C[C@H](N)C(=O)N[C@@H](CCC(=O)C=[N+]=[N-])C(=O)O [Compound 23, 2-(2-Aminopropanamido)-6-diazo-5-oxohexanoic acid]

DON release / exposure in mouse plasma upon oral administration (in words) [10]: some release
Structure (SMILES): CC(C)C[C@H](N)C(=O)N[C@@H](CCC(=O)C=[N+]=[N-])C(=O)O [Compound 26, 2-(2-Amino-4-methylpentanamido)-6-diazo-5-oxohexanoic acid triethylammonium salt]

DON release / exposure in mouse plasma upon oral administration (in words) [10]: little DON release
Structure (SMILES): CC(OC(=O)N[C@@H](CCC(=O)C=[N+]=[N-])C(=O)O)OC(=O)C(C)C (some centres unmarked) [Compound 29, 6-Diazo-2-(((1-(isobutyryloxy)ethoxy)carbonyl)amino)-5-oxohexanoic acid triethylammonium salt]

DON release / exposure in mouse plasma upon oral administration (in words) [10]: little DON release
Structure (SMILES): CC(OC(=O)N[C@@H](CCC(=O)C=[N+]=[N-])C(=O)O)OC(=O)C(C)(C)C (some centres unmarked) [Compound 30, 6-Diazo-2-(((1-(pivaloyloxy)ethoxy)carbonyl)amino)-5-oxohexanoic acid triethylammonium salt]

DON release / exposure in mouse plasma upon oral administration (in words) [10]: below the limit of quantitation
Structure (SMILES): C=CCOC(=O)N[C@@H](CCC(=O)C=[N+]=[N-])C(=O)O [LTP 073]
